Test results: PMC7311426, “An amphipathic peptide with antibiotic activity against multidrug-resistant Gram-negative bacteria” (Nature Communications, 2020)
Converted amounts (≈) assume the structure as drawn.

Legend:
Experiment in all cases: microbe, parasite or virus in culture
E. coli = tested on: E. coli
In short: (§1)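 MICs were scored by eye after 18-20 h static incubation at 37 °C, with bacteria at 5 × 10^5 CFU mL^−1 in MHB. Peptides were serially diluted 2-fold over 12 points, top 128 or 64 μg mL^−1. CAMHB (CLSI) and 1% agarose-MHB variants were also run, at least six replicates.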

K. pneumoniae = tested on: K. pneumoniae
In short: as §1

P. aeruginosa = tested on: P. aeruginosa
In short: as §1

SMILES: NC[C@H]1O[C@H](O[C@H]2[C@H](O)[C@@H](O[C@H]3O[C@H](CO)[C@@H](O)[C@H](N)[C@H]3O)[C@H](N)C[C@@H]2N)[C@H](N)C[C@@H]1O [TOB]
- MIC, broth microdilution (E. coli; E. coli AUD172 parent strain not exposed to drug): 8 µg/mL (≈ 17.1 µM)
- MIC, broth microdilution (E. coli; E. coli AUD172 spontaneous mutant, AA139 selection 4X, plate 2, colony 2, drug-free passage 1): 8 µg/mL (≈ 17.1 µM)
- MIC, broth microdilution (E. coli; E. coli AUD172 spontaneous mutant, AA139 selection 4X, plate 2, colony 2, drug-free passage 5): 16 µg/mL (≈ 34.2 µM)
- MIC, broth microdilution (K. pneumoniae; K. pneumoniae 3010 parent strain not exposed to drug): 0.5 µg/mL (≈ 1.07 µM)
- MIC, broth microdilution (K. pneumoniae; K. pneumoniae 3010 spontaneous mutant, AA139 selection 4X, plate 1, colony 1, drug-free passage 1): 1 µg/mL (≈ 2.14 µM)
- MIC, broth microdilution (K. pneumoniae; K. pneumoniae 3010 spontaneous mutant, AA139 selection 4X, plate 1, colony 1, drug-free passage 5): 0.25 µg/mL (≈ 0.535 µM)
- MIC, broth microdilution (K. pneumoniae; K. pneumoniae 3010 spontaneous mutant, AA139 selection 8X, plate 1, colony 1, drug-free passage 1): 0.5 µg/mL (≈ 1.07 µM)
- MIC, broth microdilution (K. pneumoniae; K. pneumoniae 3010 spontaneous mutant, AA139 selection 8X, plate 1, colony 1, drug-free passage 5): 0.25 µg/mL (≈ 0.535 µM)
- MIC, broth microdilution (K. pneumoniae; K. pneumoniae ST258 parent strain not exposed to drug): 16 µg/mL (≈ 34.2 µM)
- MIC, broth microdilution (K. pneumoniae; K. pneumoniae ST258 spontaneous mutant, AA139 selection 4X, plate 1, colony 1, drug-free passage 1): 16, 16 µg/mL
- MIC, broth microdilution (K. pneumoniae; K. pneumoniae ST258 spontaneous mutant, AA139 selection 4X, plate 1, colony 1, drug-free passage 5): 16, 16 µg/mL
- MIC, broth microdilution (P. aeruginosa; P. aeruginosa ATCC 27853 parent strain not exposed to drug): 0.5 µg/mL (≈ 1.07 µM)
- MIC, broth microdilution (P. aeruginosa; P. aeruginosa ATCC 27853 spontaneous mutant, AA139 selection 4X, plate 1, colony 1, drug-free passage 1): 1 µg/mL (≈ 2.14 µM)
- MIC, broth microdilution (P. aeruginosa; P. aeruginosa ATCC 27853 spontaneous mutant, AA139 selection 4X, plate 1, colony 1, drug-free passage 5): 0.5 µg/mL (≈ 1.07 µM)
- MIC, broth microdilution (P. aeruginosa; P. aeruginosa ATCC 27853 spontaneous mutant, AA139 selection 4X, plate 1, colony 2, drug-free passage 1): 0.5, 0.5 µg/mL
- MIC, broth microdilution (P. aeruginosa; P. aeruginosa ATCC 27853 spontaneous mutant, AA139 selection 4X, plate 1, colony 2, drug-free passage 5): 0.5, 0.5 µg/mL
- MIC, broth microdilution (P. aeruginosa; P. aeruginosa ATCC 27853 spontaneous mutant, AA139 selection 4X, plate 1, colony 3, drug-free passage 1): 0.5, 0.5 µg/mL
- MIC, broth microdilution (P. aeruginosa; P. aeruginosa ATCC 27853 spontaneous mutant, AA139 selection 4X, plate 1, colony 3, drug-free passage 5): 0.5, 0.5 µg/mL
- MIC, broth microdilution (P. aeruginosa; P. aeruginosa ATCC 27853 spontaneous mutant, AA139 selection 4X, plate 1, colony 4, drug-free passage 1): 0.5, 0.5 µg/mL
- MIC, broth microdilution (P. aeruginosa; P. aeruginosa ATCC 27853 spontaneous mutant, AA139 selection 4X, plate 1, colony 4, drug-free passage 5): 0.5, 0.5 µg/mL
- MIC, broth microdilution (P. aeruginosa; P. aeruginosa ATCC 27853 spontaneous mutant, AA139 selection 4X, plate 1, colony 5, drug-free passage 1): 1 µg/mL (≈ 2.14 µM)
- MIC, broth microdilution (P. aeruginosa; P. aeruginosa ATCC 27853 spontaneous mutant, AA139 selection 4X, plate 1, colony 5, drug-free passage 5): 0.5 µg/mL (≈ 1.07 µM)
- MIC, broth microdilution (P. aeruginosa; P. aeruginosa ATCC 27853 spontaneous mutant, AA139 selection 4X, plate 1, colony 6, drug-free passage 1): 1 µg/mL (≈ 2.14 µM)
- MIC, broth microdilution (P. aeruginosa; P. aeruginosa ATCC 27853 spontaneous mutant, AA139 selection 4X, plate 1, colony 6, drug-free passage 5): 0.5 µg/mL (≈ 1.07 µM)
- MIC, broth microdilution (P. aeruginosa; P. aeruginosa ATCC 27853 spontaneous mutant, AA139 selection 4X, plate 2, colony 1, drug-free passage 1): 0.5, 0.5 µg/mL
- MIC, broth microdilution (P. aeruginosa; P. aeruginosa ATCC 27853 spontaneous mutant, AA139 selection 4X, plate 2, colony 1, drug-free passage 5): 0.5, 0.5 µg/mL
- MIC, broth microdilution (P. aeruginosa; P. aeruginosa ATCC 27853 spontaneous mutant, AA139 selection 4X, plate 2, colony 2, drug-free passage 1): 0.5, 0.5 µg/mL
- MIC, broth microdilution (P. aeruginosa; P. aeruginosa ATCC 27853 spontaneous mutant, AA139 selection 4X, plate 2, colony 2, drug-free passage 5): 0.5, 0.5 µg/mL
- MIC, broth microdilution (P. aeruginosa; P. aeruginosa ATCC 27853 spontaneous mutant, AA139 selection 4X, plate 2, colony 3, drug-free passage 1): 1 µg/mL (≈ 2.14 µM)
- MIC, broth microdilution (P. aeruginosa; P. aeruginosa ATCC 27853 spontaneous mutant, AA139 selection 4X, plate 2, colony 3, drug-free passage 5): 0.5 µg/mL (≈ 1.07 µM)
- MIC, broth microdilution (P. aeruginosa; P. aeruginosa ATCC 27853 spontaneous mutant, AA139 selection 4X, plate 2, colony 4, drug-free passage 1): 1 µg/mL (≈ 2.14 µM)
- MIC, broth microdilution (P. aeruginosa; P. aeruginosa ATCC 27853 spontaneous mutant, AA139 selection 4X, plate 2, colony 4, drug-free passage 5): 0.5 µg/mL (≈ 1.07 µM)
- MIC, broth microdilution (P. aeruginosa; P. aeruginosa ATCC 27853 spontaneous mutant, AA139 selection 8X, plate 1, colony 1, drug-free passage 1): 1 µg/mL (≈ 2.14 µM)
- MIC, broth microdilution (P. aeruginosa; P. aeruginosa ATCC 27853 spontaneous mutant, AA139 selection 8X, plate 1, colony 1, drug-free passage 5): 0.5 µg/mL (≈ 1.07 µM)
- MIC, broth microdilution (P. aeruginosa; P. aeruginosa ATCC 27853 spontaneous mutant, AA139 selection 8X, plate 1, colony 2, drug-free passage 1): 1 µg/mL (≈ 2.14 µM)
- MIC, broth microdilution (P. aeruginosa; P. aeruginosa ATCC 27853 spontaneous mutant, AA139 selection 8X, plate 1, colony 2, drug-free passage 5): 0.5 µg/mL (≈ 1.07 µM)
- MIC, broth microdilution (P. aeruginosa; P. aeruginosa ATCC 27853 spontaneous mutant, AA139 selection 8X, plate 1, colony 3, drug-free passage 1): 1 µg/mL (≈ 2.14 µM)
- MIC, broth microdilution (P. aeruginosa; P. aeruginosa ATCC 27853 spontaneous mutant, AA139 selection 8X, plate 1, colony 3, drug-free passage 5): 0.5 µg/mL (≈ 1.07 µM)
- MIC, broth microdilution (P. aeruginosa; P. aeruginosa ATCC 27853 spontaneous mutant, AA139 selection 8X, plate 1, colony 4, drug-free passage 1): 1 µg/mL (≈ 2.14 µM)
- MIC, broth microdilution (P. aeruginosa; P. aeruginosa ATCC 27853 spontaneous mutant, AA139 selection 8X, plate 1, colony 4, drug-free passage 5): 0.5 µg/mL (≈ 1.07 µM)
- MIC, broth microdilution (P. aeruginosa; P. aeruginosa ATCC 27853 spontaneous mutant, AA139 selection 8X, plate 1, colony 5, drug-free passage 1): 0.5, 0.5 µg/mL
